In ChEMBL document CHEMBL5143505, “Emerging Approaches to Overcome Acquired Drug Resistance Obstacles to Osimertinib in Non-Small-Cell Lung Cancer” (J Med Chem, 2022):

Experiments:
[1] = target: Epidermal growth factor receptor (Homo sapiens, UniProt P00533); assay: Inhibition of wild type EGFR (unknown origin)
[2] = target: T1, Epidermal growth factor receptor (Homo sapiens, UniProt P00533, C797S/L858R/T790M); assay: Inhibition of EGFR L858R/T790M/C797S triple mutant (unknown origin) expressed in mouse BaF3 cells; assay type: cell-based
T1 sequence (P00533 25-1210 T790M/C797S/L858R limits assumed): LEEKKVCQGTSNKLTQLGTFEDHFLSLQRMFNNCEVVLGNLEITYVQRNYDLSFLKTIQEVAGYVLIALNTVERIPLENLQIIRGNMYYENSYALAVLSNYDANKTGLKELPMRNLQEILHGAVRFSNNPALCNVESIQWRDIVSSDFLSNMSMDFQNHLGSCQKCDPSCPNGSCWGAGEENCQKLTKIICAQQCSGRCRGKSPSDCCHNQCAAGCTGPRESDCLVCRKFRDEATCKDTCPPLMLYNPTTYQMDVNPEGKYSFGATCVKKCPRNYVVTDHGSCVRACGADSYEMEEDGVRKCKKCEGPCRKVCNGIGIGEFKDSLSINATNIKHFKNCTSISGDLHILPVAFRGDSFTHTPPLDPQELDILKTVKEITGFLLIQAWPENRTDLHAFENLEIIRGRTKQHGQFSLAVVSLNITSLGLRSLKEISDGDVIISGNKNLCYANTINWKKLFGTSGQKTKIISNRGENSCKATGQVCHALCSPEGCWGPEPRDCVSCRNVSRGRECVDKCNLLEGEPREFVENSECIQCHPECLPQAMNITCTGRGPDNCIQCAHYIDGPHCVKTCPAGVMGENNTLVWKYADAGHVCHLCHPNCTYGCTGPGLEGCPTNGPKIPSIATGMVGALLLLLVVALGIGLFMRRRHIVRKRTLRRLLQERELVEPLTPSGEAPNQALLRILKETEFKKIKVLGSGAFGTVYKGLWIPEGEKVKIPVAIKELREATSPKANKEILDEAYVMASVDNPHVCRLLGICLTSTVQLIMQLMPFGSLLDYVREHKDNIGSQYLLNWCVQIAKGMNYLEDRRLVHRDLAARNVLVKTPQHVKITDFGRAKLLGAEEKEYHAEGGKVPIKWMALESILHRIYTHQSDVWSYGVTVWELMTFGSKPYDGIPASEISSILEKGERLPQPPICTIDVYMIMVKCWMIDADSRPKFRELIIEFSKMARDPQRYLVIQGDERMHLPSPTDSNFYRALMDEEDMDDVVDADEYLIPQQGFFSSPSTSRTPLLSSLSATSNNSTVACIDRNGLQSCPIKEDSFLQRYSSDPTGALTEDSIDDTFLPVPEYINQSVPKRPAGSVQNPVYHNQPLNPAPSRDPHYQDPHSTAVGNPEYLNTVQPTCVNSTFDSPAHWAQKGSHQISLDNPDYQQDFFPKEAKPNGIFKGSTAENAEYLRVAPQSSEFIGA

[3] = target: T1, Epidermal growth factor receptor; assay: Inhibition of EGFR L858R/T790M/C797S triple mutant (unknown origin)
NCI-H1975 = assay: Growth inhibition of human NCI-H1975 cells; assay type: functional, cell-based
[4] = Antiproliferative against in mouse Ba/F3 EGFR-Del19/T790M/C797S cells; assay type: functional, cell-based
[5] = Inhibition of p-EGFR Del19/T790M/C797S triple mutant in mouse BaF3 cells; assay type: cell-based
[6] = Antiproliferative against in mouse Ba/F3 EGFR-T790M/C797S/L858R cells; assay type: functional, cell-based
BaF3 [7] = assay: cells; conditions: Mus musculus
BaF3 [8] = assay: Antiproliferative against in mouse BaF3 cells harbouring Del19/T790M/C797S triple mutant at 100 nM relative to control; assay type: functional
Homo sapiens = organism: Homo sapiens; assay: Selectivity ratio of IC50 for EGFR Del19/T790M/C797S triple mutant (unknown origin) to wild type EGFR (unknown origin)
[9] = target: Epidermal growth factor receptor (Homo sapiens, UniProt P00533, L858R); assay: Inhibition of EGFR L858R mutant (unknown origin)
[10] = Half life in Ba/F3 EGFR cells xenografted nude mouse liver microsomes; assay type: ADME
[11] = target: Epidermal growth factor receptor (Homo sapiens, UniProt P00533, C797S/EX19DEL/T790M); assay: Inhibition of EGFR Del19/T790M/C797S triple mutant (unknown origin)
Chain of Epidermal growth factor receptor (Homo sapiens, UniProt P00533, C797S/EX19DEL/T790M) (P00533 whole entry, looked up, stated change not applied): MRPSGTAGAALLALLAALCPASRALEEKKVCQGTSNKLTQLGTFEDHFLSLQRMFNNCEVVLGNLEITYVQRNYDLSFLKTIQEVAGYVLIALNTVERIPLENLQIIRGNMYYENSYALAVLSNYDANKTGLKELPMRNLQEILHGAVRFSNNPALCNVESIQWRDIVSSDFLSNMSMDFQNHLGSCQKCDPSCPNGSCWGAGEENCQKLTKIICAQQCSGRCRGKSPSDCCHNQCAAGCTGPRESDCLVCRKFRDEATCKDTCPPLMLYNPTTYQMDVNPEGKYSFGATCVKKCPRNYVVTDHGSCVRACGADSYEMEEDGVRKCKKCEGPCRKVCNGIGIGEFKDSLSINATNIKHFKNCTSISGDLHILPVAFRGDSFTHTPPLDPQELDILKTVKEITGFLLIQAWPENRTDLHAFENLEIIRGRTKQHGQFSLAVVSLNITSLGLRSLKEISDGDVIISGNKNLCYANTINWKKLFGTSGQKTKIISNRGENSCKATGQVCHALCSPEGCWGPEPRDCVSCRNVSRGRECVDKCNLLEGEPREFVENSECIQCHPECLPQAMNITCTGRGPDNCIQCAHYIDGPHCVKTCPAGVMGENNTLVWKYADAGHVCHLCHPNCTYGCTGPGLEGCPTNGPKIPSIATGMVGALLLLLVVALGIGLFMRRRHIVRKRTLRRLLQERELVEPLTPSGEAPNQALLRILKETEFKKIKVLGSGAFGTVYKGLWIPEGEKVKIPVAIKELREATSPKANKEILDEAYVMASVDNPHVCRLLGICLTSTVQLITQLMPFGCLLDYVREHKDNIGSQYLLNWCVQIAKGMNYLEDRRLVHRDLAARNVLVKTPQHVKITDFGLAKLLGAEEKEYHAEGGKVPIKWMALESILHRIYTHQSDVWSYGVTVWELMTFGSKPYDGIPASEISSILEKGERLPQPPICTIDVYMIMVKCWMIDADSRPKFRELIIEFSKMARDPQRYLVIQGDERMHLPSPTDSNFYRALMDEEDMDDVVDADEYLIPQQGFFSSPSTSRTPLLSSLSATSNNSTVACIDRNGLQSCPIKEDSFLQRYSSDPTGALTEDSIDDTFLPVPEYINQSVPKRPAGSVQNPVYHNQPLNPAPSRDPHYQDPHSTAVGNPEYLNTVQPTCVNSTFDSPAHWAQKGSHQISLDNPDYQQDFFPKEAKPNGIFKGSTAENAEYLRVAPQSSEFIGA

BaF3 [12] = assay: Antiproliferative against in mouse BaF3 EFGR Del19/T790M/C797S cell; assay type: functional, cell-based
[13] = target: T1, Epidermal growth factor receptor; assay: Inhibition of EGFR L858R/T790M/C797S triple mutant (unknown origin) in human NCI-H1975 cell; assay type: cell-based
[14] = Oral bioavailability in rat relative to control; assay type: ADME, organism-based; conditions: in vivo
[15] = Oral bioavailability in mouse relative to control; assay type: ADME, organism-based; conditions: in vivo
[16] = target: T1, Epidermal growth factor receptor; assay: Inhibition of EGFR L858R/T790M/C797S triple mutant (unknown origin) by HTRF method
[17] = target: T2, Epidermal growth factor receptor (Homo sapiens, UniProt P00533, L858R/T790M); assay: Inhibition of EGFR L858R/T790M double mutant (unknown origin) in human NCI-H1975 cell; assay type: cell-based
T2 sequence (P00533 25-1210 T790M/L858R limits assumed): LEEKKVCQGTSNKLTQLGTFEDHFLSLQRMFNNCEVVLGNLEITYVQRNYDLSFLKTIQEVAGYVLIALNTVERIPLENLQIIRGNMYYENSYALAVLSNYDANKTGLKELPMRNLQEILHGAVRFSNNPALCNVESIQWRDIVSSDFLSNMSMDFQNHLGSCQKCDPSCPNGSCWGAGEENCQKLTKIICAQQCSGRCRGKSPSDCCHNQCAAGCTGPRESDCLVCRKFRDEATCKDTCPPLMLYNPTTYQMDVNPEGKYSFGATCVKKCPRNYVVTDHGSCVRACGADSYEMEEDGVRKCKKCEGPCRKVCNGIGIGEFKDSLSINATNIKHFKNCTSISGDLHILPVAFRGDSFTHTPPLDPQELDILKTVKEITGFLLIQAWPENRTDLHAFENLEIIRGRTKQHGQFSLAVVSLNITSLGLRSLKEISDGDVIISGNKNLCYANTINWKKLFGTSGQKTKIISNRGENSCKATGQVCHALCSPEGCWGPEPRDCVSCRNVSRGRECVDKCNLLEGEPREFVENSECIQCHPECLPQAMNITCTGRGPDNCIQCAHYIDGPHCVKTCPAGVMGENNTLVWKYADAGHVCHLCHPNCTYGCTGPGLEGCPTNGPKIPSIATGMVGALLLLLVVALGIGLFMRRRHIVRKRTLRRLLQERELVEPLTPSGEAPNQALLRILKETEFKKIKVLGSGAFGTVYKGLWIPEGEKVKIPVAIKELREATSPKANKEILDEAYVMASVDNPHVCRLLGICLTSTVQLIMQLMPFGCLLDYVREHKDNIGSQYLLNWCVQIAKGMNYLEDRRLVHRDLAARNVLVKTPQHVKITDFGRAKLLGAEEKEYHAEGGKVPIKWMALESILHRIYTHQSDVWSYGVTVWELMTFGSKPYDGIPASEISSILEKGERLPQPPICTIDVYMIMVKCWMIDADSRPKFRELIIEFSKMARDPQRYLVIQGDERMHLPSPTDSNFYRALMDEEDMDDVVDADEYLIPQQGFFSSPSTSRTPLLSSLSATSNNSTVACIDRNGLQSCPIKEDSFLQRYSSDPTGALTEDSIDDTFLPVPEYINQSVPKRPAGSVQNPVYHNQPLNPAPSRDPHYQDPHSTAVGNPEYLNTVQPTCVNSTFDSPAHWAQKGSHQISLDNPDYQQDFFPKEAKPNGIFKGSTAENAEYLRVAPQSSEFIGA

[18] = Inhibition of EGFR L858R/T790M/C797S triple mutant (unknown origin) in mouse BaF3 cells; assay type: cell-based
[19] = target: T2, Epidermal growth factor receptor; assay: Inhibition of EGFR L858R/T790M double mutant (unknown origin)

Chain of Epidermal growth factor receptor (Homo sapiens, UniProt P00533) (P00533 whole entry): as the sequence (P00533 whole entry, looked up, stated change not applied) above

CC(C)(C)n1cc(-c2cncc3ccccc23)c2c(N)ncnc21
IC50 [1]: 1620 nM
IC50 [2]: 5420 nM
IC50 [3]: 53 nM

CN(C)C1CCN(c2ccc(Nc3cc4c(N5CCC(CO)CC5)nc(Nc5ccc(F)cc5)nc4cn3)nc2)CC1
IC50 (NCI-H1975): 400 nM
IC50 [3]: 662 nM

CN1CC2(CCN(c3ccc(Nc4ncc(Cl)c(Nc5ccccc5P(C)(C)=O)n4)cc3Br)CC2)C1
IC50 [4]: ≤ 100 nM
IC50 [5]: ≤ 100 nM

CC(=O)N[C@H]1CC[C@H](n2c(=O)c(-c3ccccc3Cl)cc3ccc(Nc4ccc(N5CCN(C)CC5)c(C)c4)cc32)CC1
IC50 [3]: 47.8 nM

C=CC(=O)Nc1cc(Nc2nccc(-c3cn(C)c4ccccc34)n2)c(OC)cc1N(C)CCN(C)C [OSIMERTINIB]
IC50 [6]: 1080 nM
IC50 [4]: 730 nM

Cc1cc2cc(n1)-c1cnn(C)c1OCCC[C@@H](C)CN1/C(=N/C2=O)Nc2ccc(CN3CCN(C)CC3)cc21
IC50 [5]: 0.6 nM

COc1cc(N2CCC(N3CCN(C)CC3)CC2)ccc1Nc1ncc(Cl)c(Nc2ccccc2P(C)(C)=O)n1 [BRIGATINIB]
IC50 (BaF3 [7]): 30 nM
inhibition at 0.1 µM (BaF3 [8]): 50%

COC(=O)c1ccc(O)c(-c2nc(NCc3cccnc3)c3ccccc3n2)c1
IC50 [1]: ≥ 50000 nM

COc1cc2c(Nc3ccc(NC(=O)C(c4cc(F)ccc4F)N4Cc5ccccc5C4=O)cc3F)ncnc2cc1OCC1CCN(C)CC1 (configuration not stated)
IC50 [4]: 3.54 nM

CN1CCN(c2ccc(Nc3ncc4nc(Nc5ccc(F)cc5)n([C@H]5CCN(S(=O)(=O)C6CC6)C5)c4n3)cc2)CC1
IC50 [3]: 22 nM

OCCc1nc(-c2ccc(F)cc2)c(-c2ccnc3[nH]c(-c4ccccc4)cc23)[nH]1
IC50 [1]: ≤ 0.3 nM

Cc1cc(Nc2ncc(Cl)c(Nc3ccccc3P(C)(C)=O)n2)ccc1N1CCC2(CC1)CN(C)C2
IC50 [4]: ≤ 100 nM
IC50 [5]: ≤ 100 nM

CN1CCN(c2ccc(Nc3ncc4nc(Nc5ccccc5)n([C@@H]5CCN(S(=O)(=O)C6CC6)C5)c4n3)cc2)CC1
IC50 [3]: 40 nM

Oc1ccccc1-c1nc(NCc2cccnc2)c2ccccc2n1
Ratio IC50 (Homo sapiens): 163

CN(C)CCOc1ccc(Nc2ncc3nc(Sc4ccc(F)cc4)n(C4CCOCC4)c3n2)cc1
IC50 [9]: 1.2 nM

COc1cc(N2CCC(N3CCN(C)CC3)CC2)c(C)cc1Nc1ncc(Br)c(Nc2ccc3nccnc3c2P(C)(C)=O)n1
half-life [10]: 10 h

CSc1nc(-c2ccc(F)cc2)c(-c2ccnc3[nH]c(-c4ccccc4)cc23)[nH]1
IC50 [1]: 287 nM

C=C(C)c1cnc(Nc2ccc(N3CCC4(CC3)CN(C)C4)cc2)nc1Nc1ccccc1P(C)(C)=O
IC50 [4]: ≤ 100 nM
IC50 [5]: ≤ 100 nM

CCc1cc(Nc2ncc(Br)c(Nc3ccc4nccnc4c3P(C)(C)=O)n2)c(OC)cc1N1CCC(N2CCN(C)CC2)CC1
IC50 [11]: 0.212 nM
IC50 [4]: 9 nM
half-life [10]: 20.5 h

CN1CCN(c2ccc(Nc3ncc4nc(Nc5ccccc5)n([C@H]5CCN(S(=O)(=O)C6CC6)C5)c4n3)cc2)CC1
IC50 [3]: 18 nM

O=C(Nc1nccs1)C(c1ncn2c1CCC2)N1Cc2c(F)cc(C#Cc3ccc(CN4CCC(CO)CC4)cc3)cc2C1=O (configuration not stated)
IC50 [3]: 5 nM

COc1cc(N(C)CCN(C)C)ccc1Nc1nccc(-c2cn(CCCO)c3ccccc23)n1
IC50 [3]: 8.5 nM

CC(C)(O)Cn1/c(=N/C(=O)c2cc(F)cc(-c3cccnc3)c2)[nH]c2ccccc21
IC50 (BaF3 [12]): 250 nM
IC50 [5]: 790 nM

Cn1cc(-c2cc(C(=O)/N=c3\[nH]c4ccccc4n3[C@H]3CC[C@H](O)CC3)ccn2)cn1
IC50 [11]: 12 nM
IC50 [6]: 48.2 nM
IC50 [1]: 540 nM
IC50 [4]: 12 nM
IC50 [3]: 48.2 nM

N#Cc1ccc(O)c(-c2nc(NCc3ncccn3)c3ccccc3n2)c1
IC50 [13]: 1200 nM
bioavailability [14]: 18.6%
bioavailability [15]: 18.6%
IC50 [16]: 630 nM
IC50 [17]: 3300 nM

C=CC(=O)Nc1cc(Nc2ncc(C(=O)OC(C)C)c(-c3cc4ccccc4n3C3CC3)n2)c(OCC(F)(F)F)nc1N(C)CCN(C)C
IC50 [4]: 10 nM

CCC(=O)N[C@H]1CC[C@H](n2c(=O)c(-c3ccccc3Cl)cc3ccc(Nc4ccc(N5CCN(C)CC5)c(C)c4)cc32)CC1
IC50 [3]: 38.1 nM

CCC(=O)N[C@H]1CC[C@@H](N2C(=O)N(c3ccccc3Cl)Cc3cnc(Nc4ccc(N5CCN(C)CC5)c(C)c4)nc32)CC1
IC50 [18]: 210 nM

N#Cc1ccc(O)c(-c2nc(NCc3cccnc3)c3ccccc3n2)c1
IC50 [11]: 23 nM
IC50 [1]: 50000 nM

O=C1c2cc(F)ccc2Nc2ccccc2N1Cc1ccccc1
IC50 [1]: > 1000 nM
IC50 [3]: 52 nM

OCCCCc1nc(-c2ccc(F)cc2)c(-c2ccnc3[nH]c(-c4ccccc4)cc23)[nH]1
IC50 [1]: ≤ 0.3 nM

CCC(=O)N1CCC[C@@H](N2CC(c3cccc(F)c3Cl)=C(C)c3cnc(Nc4ccc(N5CCN(C)CC5)c(C)c4)nc32)C1
IC50 [1]: ≥ 1000 nM
IC50 [2]: 662 nM
IC50 [3]: 27.5 nM

N#Cc1ccc(O)c(-c2nc(NCc3cnccn3)c3ccccc3n2)c1
IC50 [11]: 17.9 nM
Ratio IC50 (Homo sapiens): 1000
IC50 [1]: ≥ 50000 nM

O=C(Nc1nccs1)C(c1ccccc1)N1Cc2ccc(-c3ccc4[nH]ccc4c3)cc2C1=O (configuration not stated)
IC50 [19]: 15 nM

C=CC(=O)Nc1cc(Nc2ncc(C(=O)OC(C)C)c(-c3cc4ccccc4n3C)n2)c(OCC(F)(F)F)nc1N(C)CCN(C)C
IC50 [4]: 9 nM

OCCCc1nc(-c2ccc(F)cc2)c(-c2ccnc3[nH]c(-c4ccccc4)cc23)[nH]1
IC50 [1]: ≤ 0.2 nM

Oc1ccc(-c2nc(-c3ccnc4[nH]c(-c5ccccc5)cc34)c(-c3ccc(F)cc3)[nH]2)cc1
IC50 [1]: 1000 nM
